Legend:
D(1A) dopamine receptor = D(1A) dopamine receptor (Rattus norvegicus, UniProt P18901); experiment: biochemical
Description: Compound was evaluated for its ability to inhibit dopamine receptor D1 in rat striatum using [3H]SCH-23390

D(2) dopamine receptor = D(2) dopamine receptor (Rattus norvegicus, UniProt P61169); experiment: biochemical
D(2) dopamine receptor, sequence (P61169 whole entry): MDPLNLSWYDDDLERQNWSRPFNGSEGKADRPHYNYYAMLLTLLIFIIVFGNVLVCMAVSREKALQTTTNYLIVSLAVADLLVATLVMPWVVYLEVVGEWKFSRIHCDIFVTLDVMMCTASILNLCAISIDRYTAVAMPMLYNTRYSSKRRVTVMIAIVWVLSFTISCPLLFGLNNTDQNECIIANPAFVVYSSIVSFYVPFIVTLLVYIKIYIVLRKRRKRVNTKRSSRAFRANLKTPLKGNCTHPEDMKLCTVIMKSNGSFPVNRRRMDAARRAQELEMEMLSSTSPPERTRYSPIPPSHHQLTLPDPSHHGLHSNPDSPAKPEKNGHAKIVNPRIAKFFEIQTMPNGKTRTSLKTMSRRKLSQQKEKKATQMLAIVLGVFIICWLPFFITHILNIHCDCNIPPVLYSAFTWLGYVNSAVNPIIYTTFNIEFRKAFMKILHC
Description: Compound was evaluated for its ability to inhibit dopamine receptor D2 in rat striatum using [3H]-spiperone

D(1A) dopamine receptor, sequence (P18901 whole entry): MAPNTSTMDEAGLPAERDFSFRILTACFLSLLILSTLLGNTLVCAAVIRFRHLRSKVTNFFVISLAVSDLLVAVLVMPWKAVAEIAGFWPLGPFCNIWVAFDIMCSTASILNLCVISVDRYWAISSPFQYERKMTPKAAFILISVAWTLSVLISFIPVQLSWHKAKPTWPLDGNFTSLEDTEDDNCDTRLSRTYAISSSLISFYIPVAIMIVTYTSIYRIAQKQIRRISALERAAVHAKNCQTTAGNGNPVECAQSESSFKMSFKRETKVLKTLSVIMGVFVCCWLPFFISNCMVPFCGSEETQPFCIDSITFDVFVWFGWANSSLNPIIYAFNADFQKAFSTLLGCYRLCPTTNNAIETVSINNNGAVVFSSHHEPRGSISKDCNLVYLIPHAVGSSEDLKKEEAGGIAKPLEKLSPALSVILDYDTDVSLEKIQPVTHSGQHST

SMILES	Ki (Dopamine receptor)	Ki (D(1A) dopamine receptor)	Ki (D(2) dopamine receptor)
C=CCN1CCc2cccc3c2[C@@H]1Cc1cccc(O)c1-3	1595 nM	> 10000 nM	155 nM
C=CCN1CCc2cccc3c2[C@H]1Cc1cccc(O)c1-3	0.034 nM	452 nM	2 nM

— ChEMBL document CHEMBL1125726 (J Med Chem, 1991)
